Measured values from ChEMBL document CHEMBL5346867, “A close look into the biological and synthetic aspects of fused pyrazole derivatives” (Eur J Med Chem, 2022).

Tests used:
[1] = molecular target: Vascular endothelial growth factor receptor 2 (Homo sapiens, UniProt P35968); test: Inhibition of VEGFR-2 (unknown origin)
HT-29 = test: cells; conditions: Homo sapiens, HT-29, 48 h
Description: Anti-proliferative activity against human HT-29 assessed as inhibition of cell growth incubated for 48 hrs by MTT assay

[2] = molecular target: T1, Sodium-dependent proline transporter (Homo sapiens) (UniProt Q99884); test: Inhibition of human PROT at 0.1 uM relative to control
T1 sequence (whole entry): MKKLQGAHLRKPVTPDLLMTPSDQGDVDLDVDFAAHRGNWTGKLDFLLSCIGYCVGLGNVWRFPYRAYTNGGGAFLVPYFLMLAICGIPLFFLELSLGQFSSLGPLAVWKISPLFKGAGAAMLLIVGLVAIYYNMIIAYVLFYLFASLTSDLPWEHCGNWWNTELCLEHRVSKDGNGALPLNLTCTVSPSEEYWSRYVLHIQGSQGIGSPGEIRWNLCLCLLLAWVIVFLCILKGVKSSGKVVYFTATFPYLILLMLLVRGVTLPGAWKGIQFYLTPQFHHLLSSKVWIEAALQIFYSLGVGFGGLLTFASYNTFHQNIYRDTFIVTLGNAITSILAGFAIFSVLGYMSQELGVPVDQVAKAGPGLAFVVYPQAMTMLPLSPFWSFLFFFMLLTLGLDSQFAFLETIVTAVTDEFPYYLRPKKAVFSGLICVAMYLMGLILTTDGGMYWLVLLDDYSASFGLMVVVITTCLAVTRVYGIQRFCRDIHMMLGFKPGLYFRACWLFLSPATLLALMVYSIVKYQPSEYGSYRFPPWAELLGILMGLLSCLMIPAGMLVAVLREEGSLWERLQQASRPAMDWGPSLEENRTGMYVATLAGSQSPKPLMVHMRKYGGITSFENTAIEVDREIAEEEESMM

[3] = system: Bovine viral diarrhea virus 1; test: Antiviral activity against Bovine viral diarrhea virus 1 infected in MDBK cells assessed as reduction in viral replication; assay type: functional, organism-based; conditions: Bovine viral diarrhea virus isolates and strains
[4] = molecular target: Epidermal growth factor receptor (Homo sapiens, UniProt P00533); test: Inhibition of EGFR (unknown origin)
Chain of Epidermal growth factor receptor (P00533 whole entry): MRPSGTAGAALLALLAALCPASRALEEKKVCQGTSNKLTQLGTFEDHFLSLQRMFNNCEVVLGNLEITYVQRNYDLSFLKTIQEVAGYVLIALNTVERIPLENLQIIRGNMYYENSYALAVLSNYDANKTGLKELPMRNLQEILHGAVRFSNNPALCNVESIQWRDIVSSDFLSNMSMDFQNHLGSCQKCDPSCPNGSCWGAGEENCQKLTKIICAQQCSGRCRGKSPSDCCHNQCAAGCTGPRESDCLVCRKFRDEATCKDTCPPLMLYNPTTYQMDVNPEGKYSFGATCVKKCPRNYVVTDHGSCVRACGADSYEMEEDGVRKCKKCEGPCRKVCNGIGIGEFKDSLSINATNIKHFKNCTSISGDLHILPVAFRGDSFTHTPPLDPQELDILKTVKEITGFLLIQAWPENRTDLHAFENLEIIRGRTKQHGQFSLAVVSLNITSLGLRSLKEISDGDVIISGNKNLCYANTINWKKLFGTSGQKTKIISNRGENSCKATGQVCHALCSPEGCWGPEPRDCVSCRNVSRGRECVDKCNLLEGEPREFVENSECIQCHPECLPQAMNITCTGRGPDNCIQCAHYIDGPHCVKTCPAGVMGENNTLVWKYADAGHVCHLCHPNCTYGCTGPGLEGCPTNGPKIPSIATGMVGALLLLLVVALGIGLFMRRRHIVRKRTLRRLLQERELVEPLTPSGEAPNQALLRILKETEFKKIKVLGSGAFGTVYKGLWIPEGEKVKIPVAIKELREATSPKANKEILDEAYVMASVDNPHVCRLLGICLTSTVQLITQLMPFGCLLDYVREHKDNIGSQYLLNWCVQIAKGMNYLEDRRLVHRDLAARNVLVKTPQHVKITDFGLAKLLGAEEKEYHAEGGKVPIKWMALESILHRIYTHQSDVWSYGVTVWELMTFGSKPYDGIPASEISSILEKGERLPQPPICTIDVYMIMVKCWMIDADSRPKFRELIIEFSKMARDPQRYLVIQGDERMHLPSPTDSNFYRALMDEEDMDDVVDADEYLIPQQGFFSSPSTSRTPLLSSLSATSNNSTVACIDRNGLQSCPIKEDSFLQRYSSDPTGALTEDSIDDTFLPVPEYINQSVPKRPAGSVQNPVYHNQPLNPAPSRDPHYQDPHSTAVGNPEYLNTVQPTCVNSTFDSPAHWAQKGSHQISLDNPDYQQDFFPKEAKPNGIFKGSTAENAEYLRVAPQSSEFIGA

Chain of Vascular endothelial growth factor receptor 2 (P35968 whole entry): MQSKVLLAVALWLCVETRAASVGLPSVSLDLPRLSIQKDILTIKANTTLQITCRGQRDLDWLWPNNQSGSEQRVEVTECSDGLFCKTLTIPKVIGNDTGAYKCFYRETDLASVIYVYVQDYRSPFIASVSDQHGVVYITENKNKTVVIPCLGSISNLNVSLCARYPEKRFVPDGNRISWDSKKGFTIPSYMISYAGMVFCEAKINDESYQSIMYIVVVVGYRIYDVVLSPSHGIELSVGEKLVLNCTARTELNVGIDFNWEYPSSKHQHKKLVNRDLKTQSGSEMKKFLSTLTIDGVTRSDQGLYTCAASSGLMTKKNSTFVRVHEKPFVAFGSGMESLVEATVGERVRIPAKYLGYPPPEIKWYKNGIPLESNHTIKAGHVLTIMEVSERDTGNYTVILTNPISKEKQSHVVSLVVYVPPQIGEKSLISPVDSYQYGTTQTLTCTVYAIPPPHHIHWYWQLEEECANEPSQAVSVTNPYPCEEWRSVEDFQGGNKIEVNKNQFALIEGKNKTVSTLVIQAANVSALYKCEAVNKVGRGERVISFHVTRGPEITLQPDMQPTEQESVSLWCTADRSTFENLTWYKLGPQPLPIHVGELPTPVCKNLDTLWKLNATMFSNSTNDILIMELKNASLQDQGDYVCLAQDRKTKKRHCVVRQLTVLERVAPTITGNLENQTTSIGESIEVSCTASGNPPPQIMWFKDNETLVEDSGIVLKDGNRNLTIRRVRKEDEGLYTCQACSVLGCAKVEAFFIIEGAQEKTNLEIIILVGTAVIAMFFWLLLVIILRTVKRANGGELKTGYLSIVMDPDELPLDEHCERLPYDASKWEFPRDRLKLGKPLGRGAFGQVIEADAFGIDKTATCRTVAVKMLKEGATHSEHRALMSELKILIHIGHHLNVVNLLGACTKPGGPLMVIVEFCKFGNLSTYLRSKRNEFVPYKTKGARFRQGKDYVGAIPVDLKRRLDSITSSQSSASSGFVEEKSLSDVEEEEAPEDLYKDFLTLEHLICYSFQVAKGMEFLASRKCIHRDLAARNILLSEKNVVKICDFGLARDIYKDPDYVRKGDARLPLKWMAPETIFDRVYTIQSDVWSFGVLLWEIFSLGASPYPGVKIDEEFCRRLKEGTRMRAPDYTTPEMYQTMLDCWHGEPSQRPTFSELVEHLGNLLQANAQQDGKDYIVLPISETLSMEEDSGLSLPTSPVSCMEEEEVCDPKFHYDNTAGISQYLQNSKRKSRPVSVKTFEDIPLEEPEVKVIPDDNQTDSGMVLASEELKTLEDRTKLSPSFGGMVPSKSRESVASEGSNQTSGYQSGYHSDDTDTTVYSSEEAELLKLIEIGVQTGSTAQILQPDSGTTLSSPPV

## CC1=NNC2OC(NS(=O)(=O)c3ccc(C)cc3)=C(C#N)C(c3ccccc3Br)C12 (stereo unspecified)
[1]
  IC50: 220 nM

## COc1cc(/C=N/NC(=O)COc2nc(C)nc3c2c(C)nn3-c2ccccc2)cc(OC)c1OC
HT-29
  IC50: 5360 nM

## CCCCC[C@H]1CCCN1C(=O)c1nn(C(C)(C)C)c2nc(NC(=O)c3ccc(C)cc3)sc12
[2]
  inhibition: 50%

## Cc1nn(-c2ccc(Cl)cc2)c2c1C(=O)N(c1ccccc1)C2
[3]
  EC50: 120 nM

## CC1=NNC2Oc3ncn(N)c(=N)c3C(c3ccccc3Br)C12 (stereo unspecified)
[4]
  IC50: 60 nM

## NC(=O)c1ncn([C@@H]2O[C@H](CO)[C@@H](O)[C@H]2O)n1 [RIBAVIRIN]
[3]
  EC50: 1300 nM
